Three molecules from ChEMBL document CHEMBL1909046, “DrugMatrix in vitro pharmacology data” can be followed below.

Assay [1] in a line: DRUGMATRIX: Platelet-Derived Growth Factor (PDGF) radioligand binding (ligand: [125I] PDGF). The format is cell-based. The note with it: nih3t3; Not Active = under 50% inhibition at 10 µM.
Assay [2] is described as follows: DRUGMATRIX: Calcium Channel Type L, Phenylalkylamine radioligand binding (ligand: [3H] (-)-Desmethoxyverapamil (D-888)). It is filed as cell membranes, Rattus norvegicus, Wistar, Brain, Membrane. The settings on record: Not Active = under 50% inhibition at 10 µM.
Assay [3] concerns the target Platelet-activating factor receptor (Homo sapiens, UniProt P25105). It is filed as tissue-based. Further: in other assays of this panel Not Active means under 50% inhibition at 10 µM.
The target in the next assay is Cannabinoid receptor 1 (Homo sapiens, UniProt P21554). The format is cell membranes, Chem-1, Membrane. The settings on record: chem-1. Further: in other assays of this panel Not Active means under 50% inhibition at 10 µM.
Another assay addresses Melanocortin receptor 5 (Homo sapiens, UniProt P33032). The format is cell membranes, HEK293, Membrane. The note with it: hek293.
Another assay addresses T1, Adenosine receptor A3 (Homo sapiens, UniProt P0DMS8).
T1 sequence (P0DMS8 whole entry): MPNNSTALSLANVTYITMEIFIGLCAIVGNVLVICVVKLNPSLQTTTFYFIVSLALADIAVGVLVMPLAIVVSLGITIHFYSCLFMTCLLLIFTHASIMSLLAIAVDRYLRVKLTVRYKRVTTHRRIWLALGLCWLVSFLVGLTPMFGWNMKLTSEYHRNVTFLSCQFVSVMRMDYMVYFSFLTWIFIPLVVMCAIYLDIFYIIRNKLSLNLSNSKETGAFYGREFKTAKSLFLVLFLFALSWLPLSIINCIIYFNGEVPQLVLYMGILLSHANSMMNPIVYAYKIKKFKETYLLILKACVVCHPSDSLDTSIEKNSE
The format is cell membranes, CHO-K1, Membrane.

Sequence of Cannabinoid receptor 1 (P21554 whole entry): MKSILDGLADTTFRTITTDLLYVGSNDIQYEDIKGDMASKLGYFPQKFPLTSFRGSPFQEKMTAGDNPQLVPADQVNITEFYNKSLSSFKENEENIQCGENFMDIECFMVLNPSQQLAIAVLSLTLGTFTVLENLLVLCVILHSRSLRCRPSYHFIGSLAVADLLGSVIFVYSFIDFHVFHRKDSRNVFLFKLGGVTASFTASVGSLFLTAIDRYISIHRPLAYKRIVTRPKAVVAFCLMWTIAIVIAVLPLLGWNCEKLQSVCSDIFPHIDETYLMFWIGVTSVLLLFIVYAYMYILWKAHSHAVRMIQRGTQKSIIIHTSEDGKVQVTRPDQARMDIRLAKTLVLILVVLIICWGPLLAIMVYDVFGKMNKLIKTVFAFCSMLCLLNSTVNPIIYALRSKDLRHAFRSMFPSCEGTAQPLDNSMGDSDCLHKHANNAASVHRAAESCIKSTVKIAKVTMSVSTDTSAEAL
Sequence of Melanocortin receptor 5 (P33032 whole entry): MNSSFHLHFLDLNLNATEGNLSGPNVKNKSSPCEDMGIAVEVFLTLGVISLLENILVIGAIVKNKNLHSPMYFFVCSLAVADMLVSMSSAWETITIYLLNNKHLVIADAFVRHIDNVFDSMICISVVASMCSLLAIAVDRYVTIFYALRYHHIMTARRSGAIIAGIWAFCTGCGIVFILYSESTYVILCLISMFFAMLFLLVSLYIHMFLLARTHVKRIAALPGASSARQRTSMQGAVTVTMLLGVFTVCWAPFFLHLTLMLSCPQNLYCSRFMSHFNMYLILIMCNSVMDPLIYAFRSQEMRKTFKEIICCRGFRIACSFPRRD
Sequence of Platelet-activating factor receptor (P25105 whole entry): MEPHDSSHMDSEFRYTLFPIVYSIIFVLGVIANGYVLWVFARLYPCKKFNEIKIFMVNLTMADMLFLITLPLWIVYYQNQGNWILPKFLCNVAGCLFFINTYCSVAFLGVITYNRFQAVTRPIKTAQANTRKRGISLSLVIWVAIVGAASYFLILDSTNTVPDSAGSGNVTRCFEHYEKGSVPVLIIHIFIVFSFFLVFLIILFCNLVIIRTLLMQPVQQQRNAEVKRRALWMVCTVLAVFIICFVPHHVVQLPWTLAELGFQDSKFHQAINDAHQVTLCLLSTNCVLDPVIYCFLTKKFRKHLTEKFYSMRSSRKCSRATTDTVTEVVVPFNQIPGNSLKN

Take `CO[C@@H]1[C@@H](OC)[C@H](C)[C@@](O)(CC(=O)O)O[C@H]1[C@H](C)[C@H]1O[C@@]2(CC[C@@](C)([C@H]3CC[C@@](C)([C@@H]4O[C@@H]([C@H]5O[C@](C)(O)[C@H](C)C[C@@H]5C)C[C@@H]4O[C@@H]4C[C@H](OC)[C@@H](OC)[C@H](C)O4)O3)O2)C[C@H](O)[C@H]1C.N` [MADURAMICIN]: the IC50 entry (in assay [1]; in assay [2]; in assay [3]; at Cannabinoid receptor 1; on Melanocortin receptor 5; against Adenosine receptor A3 (cho-k1)) was “Not Active” throughout. Further, the Ki entry in assay [1] and in assay [2] was “Not Active” throughout.

Consider `CC(N)C12CC3CC(CC(C3)C1)C2` (stereo not given) [RIMANTADINE], for which the IC50 result (in assay [1]; in assay [2]; in assay [3]; on Cannabinoid receptor 1; at Melanocortin receptor 5; against Adenosine receptor A3 (cho-k1)) was “Not Active” in each case. The Ki entry in assay [1] and in assay [2] was “Not Active” each time.

With `CCN(CC)C(=S)SSC(=S)N(CC)CC`, the half-maximal inhibitory concentration (IC50) result was “Not Active” in assay [1]; “Not Active” in assay [2]; “Not Active” in assay [3]; “Not Active” against Cannabinoid receptor 1; “Not Active” against Melanocortin receptor 5; 356 nM at Adenosine receptor A3 (read-out: IC50). Besides, the Ki result in assay [1] is “Not Active”; in assay [2], “Not Active”; at Adenosine receptor A3 (read-out: Ki), 201 nM.

One may read the IC50 as the concentration at which inhibition is half-maximal. As usually defined, the Ki is a measure of affinity in units of concentration, obtained from inhibition or displacement.
